Literature values in patent US20150338392A1, “Sterile and instantly dissolvable drug membrane and method thereof for testing drug sensitivity of antineoplastic drugs” (priority 2013, published 2015).

What was measured:
[1] = tested on: non-small cell lung cancer; details: clinical, background statement
invasive breast cancer = details: clinical, background statement

Structure (SMILES)	patients who receive no obvious effect [1]	invasive breast cancer patients who are not sensitive to the drug (invasive breast cancer) [%]
Nc1ccn([C@@H]2O[C@H](CO)[C@@H](O)C2(F)F)c(=O)n1 [Gemzar]	more than 60%	–
COc1cccc2c1C(=O)c1c(O)c3c(c(O)c1C2=O)C[C@@](O)(C(=O)CO)C[C@@H]3O[C@H]1C[C@H](N)[C@H](O)[C@H](C)O1 [doxorubicin]	–	50
